The test system of data set [1] is Rattus norvegicus. The experiment in a line: Percent Edema variation in Carrageenan-induced paw edema test at a dose of 100 mg/kg perorally in rats after 60 min (p<0.01). The settings on record: route oral. It is filed as functional.
Data set [2] has as its system Rattus norvegicus. Kind of data set: Percent Edema variation in Carrageenan-induced paw edema test at a dose of 100 mg/kg perorally in rats after 180 min. The format is functional. The settings on record: route oral. In general terms: The carrageenan paw model is a standard test of acute inflammation.
The subject of data set [3] is Rattus norvegicus. The experiment in a line: Animals with Ulcers in Carrageenan-induced paw edema test at a dose of 100 mg/kg perorally in rats. The settings on record: route oral. The format is functional.
Data set [4] has as its system Rattus norvegicus. The experiment in a line: Percent Edema variation in Carrageenan-induced paw edema test at a dose of 100 mg/kg perorally in rats after 120 min. It is filed as functional. The settings on record: route oral.
For data set [5], the system named is Rattus norvegicus. The experiment in a line: Animals with Hyperemia in Carrageenan-induced paw edema test at a dose of 100 mg/kg perorally in rats. The format is functional. The settings on record: route oral.
Data set [6] in a line: Peroral dose causing 50% death of the mice population. It is filed as ADME, organism-based. The settings on record: mouse, in vivo, po.
Data set [7] can be described thus: Minimum concentration which causes 50% of the Artemia salina larvae to lose mobility. It is filed as ADME, organism-based. The settings on record: in vivo.
For data set [8], the system named is Rattus norvegicus. Kind of data set: Percent Edema variation in Carrageenan-induced paw edema test at a dose of 100 mg/kg perorally in rats after 60 min. The format is functional. The settings on record: route oral.
The test system of data set [9] is Rattus norvegicus. Kind of data set: Analgesic activity was determined using acetic acid writing test at a dose of 100 mg/kg perorally in rats.(p<0.05). The format is functional. The settings on record: route oral.
The subject of data set [10] is Rattus norvegicus. The experiment in a line: Reaction time in Hot plate test at a dose of 100 mg/kg perorally in rats after 120 min. The format is functional. The settings on record: route oral.
The subject of data set [11] is Rattus norvegicus. The experiment in a line: Reaction time in Hot plate test at a dose of 100 mg/kg perorally in rats after 180 min. The format is functional. The settings on record: route oral.
The test system of data set [12] is Rattus norvegicus. The experiment in a line: Number of writhings in Acetic acid Writhing test at a dose of 100 mg/kg perorally in rats. The settings on record: route oral. The format is functional. Background: In writhing tests, fewer writhes than in controls are read as antinociception.
The test system of data set [13] is Rattus norvegicus. Kind of data set: Reaction time in Hot plate test at a dose of 100 mg/kg perorally in rats after 60 min. It is filed as functional. The settings on record: route oral. In general terms: Hot-plate and tail-flick tests time the reaction to a heat stimulus.
The test system of data set [14] is Rattus norvegicus. Kind of data set: Percent Edema variation in Carrageenan-induced paw edema test at a dose of 100 mg/kg perorally in rats after 180 min (p<0.001). The format is functional. The settings on record: route oral.
The test system of data set [15] is Rattus norvegicus. The experiment in a line: Percent Edema variation in Carrageenan-induced paw edema test at a dose of 100 mg/kg perorally in rats after 180 min (p<0.01). It is filed as functional. The settings on record: route oral.
Data set [16] has as its system Rattus norvegicus. The experiment in a line: Analgesic activity was determined using acetic acid writing test at a dose of 100 mg/kg perorally in rats. It is filed as functional. The settings on record: route oral.
For data set [17], the system named is Rattus norvegicus. Kind of data set: Reaction time in Hot plate test at a dose of 100 mg/kg perorally in rats after 120 min (p<0.05). The settings on record: route oral. It is filed as functional.

In general, LD50 refers to the dose at which mortality reaches 50%. Low readings indicate greater toxicity, high ones lower toxicity. In general, LC50 refers to the concentration lethal to half of the exposed cells or organisms. A higher LC50 goes with lower toxicity. With `O=C1CSC(c2cccc([N+](=O)[O-])c2)N1CCN1C(=O)CSC1c1cccc([N+](=O)[O-])c1` (centres undefined), the Edema variation with Rattus norvegicus [1] is -35.52%; in the data set with Rattus norvegicus [2], 23.43%; in the data set with Rattus norvegicus [4], -0.31%. The Animals was found to be 0% in the data set on Rattus norvegicus [3] and 40% with Rattus norvegicus [5]. The median lethal dose (LD50) in data set [6] was above 1000 mg/kg. For the same compound, the LC50 in data set [7] was above 1000 µg/mL.

Broadly, the inhibition in vivo is the relative decrease from the control value, in per cent. As for `COc1ccc(C2SCC(=O)N2CCN2C(=O)CSC2c2ccc(OC)cc2)cc1` (centres undefined), the Edema variation with Rattus norvegicus [8] is on record as 39.52%; in the data set with Rattus norvegicus [4] it was -26.62%; in the data set with Rattus norvegicus [14], -64.98%. Further, the inhibition in vivo at 100 mg/kg with Rattus norvegicus [9] came to 22%. Further, the results for the Reaction time with Rattus norvegicus [10], with Rattus norvegicus [11] and in the data set with Rattus norvegicus [13] were 15.1 s, 13.9 s and 11.2 s, respectively. Besides, the No. of writhings in the data set on Rattus norvegicus [12] came out at 15.8. The Animals was 0% in the data set with Rattus norvegicus [3] and 20% in the data set on Rattus norvegicus [5]. In addition, the LD50 in [6] was above 1000 mg/kg. In [7], the median lethal concentration (LC50) is above 1000 µg/mL.

As for `Cc1cccc(C2SCC(=O)N2CCN2C(=O)CSC2c2cccc(C)c2)c1` (centres undefined), the Edema variation in the data set with Rattus norvegicus [8] is on record as 43.41%; with Rattus norvegicus [2], -23.6%; in the data set on Rattus norvegicus [4] it was -0.13%. In addition, the figures for the Animals with Rattus norvegicus [3] and in the data set on Rattus norvegicus [5] were 0% and 20%, respectively. The LD50 in [6] was above 1000 mg/kg. Further, the LC50 in data set [7] is above 1000 µg/mL.

Consider `COc1ccc(OC)c([C@H]2SCC(=O)N2CCN2C(=O)CS[C@H]2c2cc(OC)ccc2OC)c1`, for which the Edema variation in the data set on Rattus norvegicus [8] was -12.48%; in the data set with Rattus norvegicus [15] it was -39.06%; in the data set with Rattus norvegicus [4], -13.5%. Also, the Animals in the data set on Rattus norvegicus [3] came to 0%; with Rattus norvegicus [5] it was 40%. The compound further displayed an LD50 in data set [6] above 1000 mg/kg. The LC50 in data set [7] is above 1000 µg/mL.

Turning to `COc1ccc(OC)c(C2SCC(=O)N2CCN2C(=O)CSC2c2cc(OC)ccc2OC)c1` (centres undefined), the Edema variation in the data set with Rattus norvegicus [8] is on record as 33.55%; in the data set with Rattus norvegicus [2], -70.22%; in the data set with Rattus norvegicus [4], -24.62%. Moreover, the Animals in the data set on Rattus norvegicus [3] is recorded as 0%; in the data set with Rattus norvegicus [5] it was 40%. This compound also displayed an LD50 in data set [6] above 1000 mg/kg. Further, the LC50 in data set [7] was above 1000 µg/mL.

`COc1ccc(C2SCC(=O)N2CCN2C(=O)CSC2c2ccc(OC)c(F)c2)cc1F` (centres undefined): the Edema variation in the data set with Rattus norvegicus [8] is 8.6%; in the data set on Rattus norvegicus [15] it was -38.94%; in the data set with Rattus norvegicus [4] it was -23.83%. The Reaction time in the data set with Rattus norvegicus [11] is on record as 13.5 s; with Rattus norvegicus [17], 16.8 s; in the data set with Rattus norvegicus [13] it was 13.4 s. Moreover, in the data set with Rattus norvegicus [12], the No. of writhings was found to be 16.4. Further, the Animals in the data set with Rattus norvegicus [3] was 0%; in the data set with Rattus norvegicus [5], 20%. The compound also returned an inhibition in vivo at 100 mg/kg in the data set on Rattus norvegicus [16] of 20%. Moreover, the LD50 in data set [6] is above 1000 mg/kg. This compound gave an LC50 in data set [7] above 1000 µg/mL.

On to `COc1cccc(C2SCC(=O)N2CCN2C(=O)CSC2c2cccc(OC)c2)c1` (centres undefined), for which the Reaction time was 13 s in the data set on Rattus norvegicus [10], 12.9 s with Rattus norvegicus [11] and 13.4 s in the data set with Rattus norvegicus [13]. Moreover, the Edema variation with Rattus norvegicus [1] is listed as -34.4%; with Rattus norvegicus [2] it was -18.31%; in the data set with Rattus norvegicus [4], -26.3%. Further, in the data set with Rattus norvegicus [12], the No. of writhings is on record as 19.5. Moreover, the results for the Animals in the data set on Rattus norvegicus [3] and in the data set with Rattus norvegicus [5] were 0% and 20%, respectively. Further, 100 mg/kg produced 4% inhibition in vivo with Rattus norvegicus [16]. Also, in data set [6], the LD50 is above 1000 mg/kg. In [7], the LC50 is above 1000 µg/mL.

The values are drawn from ChEMBL document CHEMBL1133821, “Synthesis and antiinflammatory, analgesic activity of 3,3'-(1,2-ethanediyl)-bis[2-aryl-4-thiazolidinone] chiral compounds. Part 10” (Bioorg Med Chem Lett, 2001).
